Patent US9120795B2, “Crystalline form of a β-lactamase inhibitor” (Cubist Pharmaceuticals, Inc., priority 2013, dated 2015)

Assay: Solid form stability at ambient conditions, XRPD
Assay type: physicochemical
Conditions: sulfate; for transformation of the form at ambient conditions: storage at ambient conditions
Procedure: X-Ray Powder Diffraction patterns were collected on a Bruker D8 diffractometer using Cu Kα radiation (40 kV, 40 mA), 0-20 goniometer, and divergence of V4 and receiving slits, a Ge monochromator and a Lynxeye detector. The instrument is performance checked using a certified Corundum standard (NIST 1976). The software used for data collection was Diffrac Plus XRD Commander v2.6.1 and the data were analysed and presented using Diffrac Plus EVA v13.0.0.2 or v15.0.0.0. Samples were run under ambient conditions as flat plate specimens using powder as received. The sample was gently packed into a cavity cut into polished, zero-background (510) silicon wafer. The sample was rotated in its own plane during analysis. The details of the data collection are: angular range: 2 to 42 °2θ; step size: 0.05 °2θ; collection time: 0.5 s/step. Amorphous material (˜60 mg) was generated as in Procedure 1. The amorphous material was suspended in different solvent systems (3 mL) at 50° C. A sample was withdrawn after 3 h and 24 h. The final product was filtered after 48 h and analysed by XRPD. The solids isolated were re-analysed again by XRPD after few days at ambient conditions (˜25° C. and ˜40% RH).

| SMILES | stability of the form (Summary of Forms, Description) | transformation of the form at ambient conditions |
| --- | --- | --- |
| O=C1N2C[C@@H](CC[C@H]2c2nnco2)N1OS(=O)(=O)[O-].[Na+] [Hydrate 2, sodium (2S,5R)-2-(1,3,4-oxadiazol-2-yl)-7-oxo-1,6-diazabicyclo[3.2.1]octan-6-yl sulfate] | Metastable, hexa-hydrate | – |
| O=C1N2C[C@@H](CC[C@H]2c2nnco2)N1OS(=O)(=O)[O-].[Na+] [Hydrate 3, sodium (2S,5R)-2-(1,3,4-oxadiazol-2-yl)-7-oxo-1,6-diazabicyclo[3.2.1]octan-6-yl sulfate] | Metastable, suspected mono-hydrate | metastable and transform to Hydrate 5 or Hydrate 1 |
| O=C1N2C[C@@H](CC[C@H]2c2nnco2)N1OS(=O)(=O)[O-].[Na+] [Hydrate 4, sodium (2S,5R)-2-(1,3,4-oxadiazol-2-yl)-7-oxo-1,6-diazabicyclo[3.2.1]octan-6-yl sulfate] | Metastable, suspected hemi-hydrate | metastable and transforms to Hydrate 1 |
| O=C1N2C[C@@H](CC[C@H]2c2nnco2)N1OS(=O)(=O)[O-].[Na+] [Hydrate 5, sodium (2S,5R)-2-(1,3,4-oxadiazol-2-yl)-7-oxo-1,6-diazabicyclo[3.2.1]octan-6-yl sulfate] | Metastable, di-hydrate | – |
| O=C1N2C[C@@H](CC[C@H]2c2nnco2)N1OS(=O)(=O)[O-].[Na+] [Hydrate 6, sodium (2S,5R)-2-(1,3,4-oxadiazol-2-yl)-7-oxo-1,6-diazabicyclo[3.2.1]octan-6-yl sulfate] | Metastable, suspected mono-hydrate, | metastable and transform to Hydrate 5 or Hydrate 1 |
| O=C1N2C[C@@H](CC[C@H]2c2nnco2)N1OS(=O)(=O)[O-].[Na+] [Hydrate 7, sodium (2S,5R)-2-(1,3,4-oxadiazol-2-yl)-7-oxo-1,6-diazabicyclo[3.2.1]octan-6-yl sulfate] | Metastable, only isolated as a mixture | – |
